Reference: ChEMBL document CHEMBL4406818, “Xanthone derivatives from the leaves of Garcinia oligantha” (2019)
The source made the active and inactive calls. The rule behind the calls is not given here.

Columns and labels:
[1] = system: LNCaP; assay: Cytotoxicity against quiescent human LNCAP cells assessed as induction of cell death at 20 uM measured after 24 hrs by SYBR green dye based fluorescence analysis; type: functional
[2] = system: LNCaP; assay: Induction of cell death in quiescent human LNCAP cells assessed as proportion of live cells at 20 uM measured after 24 hrs by propidium iodide staining based flow cytometry analysis (reference value: 95.1%); type: functional
[3] = system: LNCaP; assay: Induction of cell death in quiescent human LNCAP cells assessed as proportion of dead cells at 20 uM measured after 24 hrs by propidium iodide staining based flow cytometry analysis (reference value: 4.90 %); type: functional
[4] = system: LNCaP; assay: Induction of cell death in quiescent human LNCAP cells assessed as proportion of live cells at 5 uM measured after 24 hrs by propidium iodide staining based flow cytometry analysis (reference value: 95.1%); type: functional
[5] = system: LNCaP; assay: Cytotoxicity against quiescent human LNCAP cells assessed as induction of cell death measured after 24 hrs by […] dye based fluorescence analysis; type: functional
[6] = system: LNCaP; assay: Induction of apoptosis in quiescent human LNCAP cells assessed as decrease in caspase-3 protein expression at 8 to 12 uM measured after 24 hrs by Western blot analysis; type: functional, cell-based
[7] = system: LNCaP; assay: Induction of cell death in quiescent human LNCAP cells assessed as proportion of live cells at 7.5 uM measured after 24 hrs by propidium iodide staining based flow cytometry analysis (reference value: 95.1%); type: functional
[8] = system: LNCaP; assay: Induction of apoptosis in quiescent human LNCAP cells assessed as chromatin condensation at periphery of nucleus at 5 to 12 uM measured after 24 hrs by Hoechst staining based fluorescent microscopy; type: functional, cell-based
[9] = system: LNCaP; assay: Induction of apoptosis in quiescent human LNCAP cells assessed as nucleus fragmentation at 5 to 12 uM measured after 24 hrs by Hoechst staining based fluorescent microscopy; type: functional, cell-based
[10] = system: LNCaP; assay: Induction of apoptosis in quiescent human LNCAP cells assessed as nucleus fragmentation at 5 to 12 uM measured after 24 hrs by phase contrast microscopy; type: functional, cell-based
[11] = system: LNCaP; assay: Induction of cell death in quiescent human LNCAP cells assessed as proportion of live cells at 10 uM measured after 24 hrs by propidium iodide staining based flow cytometry analysis (reference value: 95.1%); type: functional
[12] = system: LNCaP; assay: Induction of cell death in quiescent human LNCAP cells assessed as proportion of dead cells at 10 uM measured after 24 hrs by propidium iodide staining based flow cytometry analysis (reference value: 4.90 %); type: functional
[13] = system: LNCaP; assay: Induction of apoptosis in quiescent human LNCAP cells assessed as increase in caspase-3 activity at 8 to 12 uM measured after 24 hrs; type: functional, cell-based
[14] = system: LNCaP; assay: Induction of apoptosis in quiescent human LNCAP cells assessed as decrease in Bcl-2 protein expression at 8 to 12 uM measured after 24 hrs by Western blot analysis; type: functional, cell-based
[15] = system: LNCaP; assay: Induction of cell death in quiescent human LNCAP cells assessed as proportion of dead cells at 7.5 uM measured after 24 hrs by propidium iodide staining based flow cytometry analysis (reference value: 4.90 %); type: functional
[16] = system: LNCaP; assay: Induction of apoptosis in quiescent human LNCAP cells assessed as decrease in caspase-9 protein expression at 8 to 12 uM measured after 24 hrs by Western blot analysis; type: functional, cell-based
[17] = system: LNCaP; assay: Induction of apoptosis in quiescent human LNCAP cells assessed as chromatin condensation at periphery of nucleus at 5 to 12 uM measured after 24 hrs by phase contrast microscopy; type: functional, cell-based
[18] = system: LNCaP; assay: Induction of cell death in quiescent human LNCAP cells assessed as proportion of dead cells at 5 uM measured after 24 hrs by propidium iodide staining based flow cytometry analysis (reference value: 4.90 %); type: functional

Compound: COC(=O)C12OC(=O)C(CC=C(C)C)(CC=C(C)C)C1C(=O)c1c(O)cc3c(c1O2)C=CC(C)(C)O3 (racemic)
- Activity [1]: Active

Compound: CC(C)=CCCC(C)(O)[C@@H]1C[C@@]2(CC=C(C)C)C(=C(O)C(=O)c3oc4c5c(cc(O)c4c(=O)c32)OC(C)(C)C=C5)O1 (stereo partly specified)
- Activity [1]: Active

Compound: COC(=O)C1(O)C(=O)C(CC=C(C)C)(CC=C(C)C)c2c1oc1c3c(cc(O)c1c2=O)OC(C)(C)C=C3 (stereo unspecified)
- Activity [1]: Active

Compound: CC(=O)O[C@H]1C(=O)[C@@]2(C)[C@H]([C@H](OC(=O)c3ccccc3)[C@]3(O)C[C@H](OC(=O)[C@H](O)[C@@H](NC(=O)c4ccccc4)c4ccccc4)C(C)=C1C3(C)C)[C@]1(OC(C)=O)CO[C@@H]1C[C@@H]2O [PACLITAXEL]
- Activity [2]: 92.9%
- Activity [1]: inactive
- Activity [3]: 7.08%

Compound: COC(=O)[C@]1(O)C(=O)[C@](CC=C(C)C)(C/C=C(\C)CCC=C(C)C)c2c1oc1c(CC=C(C)C)c(O)cc(O)c1c2=O
- Activity [4]: 87.6%
- Activity [5]: Dose-dependent effect
- Activity [1]: Active
- Activity [6]: Active
- Activity [7]: 49.9%
- Activity [8]: Active
- Activity [9]: Active
- Activity [10]: Active
- Activity [11]: 29.9%
- Activity [12]: 70.1%
- Activity [13]: Active
- Activity [14]: Active
- Activity [15]: 50.1%
- Activity [16]: Active
- Activity [17]: Active
- Activity [18]: 12.4%

Compound: CC(C)=CCc1c(O)cc(O)c2c(=O)c3c(oc12)C(=O)[C@@]1(O)C(=O)[C@]3(CC=C(C)C)C[C@@H]2C(C)(C)CCC[C@]21C
- Activity [1]: Active

Compound: COC(=O)c1oc2c(CC=C(C)C)c(O)cc(O)c2c(=O)c1C(CC=C(C)C)(CC=C(C)C)C(=O)O
- Activity [1]: Active

Compound: CC(C)=CCCC(C)(O)[C@@H]1C[C@@]23CC=C(C)CO[C@]2(O1)C(=O)c1oc2c4c(cc(O)c2c(=O)c13)OC(C)(C)C=C4 (stereo partly specified)
- Activity [1]: Active

Compound: CC(C)=CCC/C(C)=C/C[C@@]12C[C@H](C(C)(C)O)OC1=C(O)C(=O)c1oc3c4c(cc(O)c3c(=O)c12)OC(C)(C)C=C4
- Activity [1]: Active
